PubChem BioAssay AID651798 (Broad Institute, 2012)
The source made the active and inactive calls.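 Rule for the calls: active = fitted AC50 at or below twice the top valid dose, with signal falling as dose rises; inconclusive = flat fit between -30 and -70%, or poor fit; inactive = the rest, including rising effects.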

target: Kelch-like ECH-associated protein 1 (Homo sapiens) (UniProt Q14145); assay: Keap1-Nrf2 protein-protein interaction inhibitors, dose response, biochemical, fluorescence polarization, dry powder samples (AID 651798); settings: Keap1 Kelch/FITC-Nrf2 peptide fluorescence polarization
Sequence (Q14145 whole entry, looked up): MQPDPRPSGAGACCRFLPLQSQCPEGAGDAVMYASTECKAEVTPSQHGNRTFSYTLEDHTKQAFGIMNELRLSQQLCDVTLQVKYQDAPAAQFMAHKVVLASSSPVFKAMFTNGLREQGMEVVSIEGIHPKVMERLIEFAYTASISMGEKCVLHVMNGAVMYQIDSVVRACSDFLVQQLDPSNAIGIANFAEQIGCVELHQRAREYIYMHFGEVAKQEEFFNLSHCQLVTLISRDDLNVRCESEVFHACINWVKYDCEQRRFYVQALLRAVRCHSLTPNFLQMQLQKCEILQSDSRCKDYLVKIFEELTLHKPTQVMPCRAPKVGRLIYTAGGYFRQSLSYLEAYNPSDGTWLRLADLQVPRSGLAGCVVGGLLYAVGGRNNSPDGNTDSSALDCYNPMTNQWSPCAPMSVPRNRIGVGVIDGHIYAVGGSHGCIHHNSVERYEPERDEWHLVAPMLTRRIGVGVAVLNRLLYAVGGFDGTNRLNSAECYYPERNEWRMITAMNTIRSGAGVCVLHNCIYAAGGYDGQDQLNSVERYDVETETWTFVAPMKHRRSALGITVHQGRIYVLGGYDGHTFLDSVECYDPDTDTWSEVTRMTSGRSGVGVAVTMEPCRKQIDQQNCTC

| Compound | AC50 |
| --- | --- |
| CC(C)OC(=O)C(C(=O)C(F)(F)F)c1cc(NS(=O)(=O)c2ccccc2)c2ccccc2c1O (stereo not drawn) | 21.8 µM |
| O=C(O)[C@H]1C2C=CC(C2)[C@H]1C(=O)N1CCc2ccccc2C1CN1C(=O)c2ccccc2C1=O (stereo partly drawn) | > 100 µM (inactive) |
| Cc1ccc(S(=O)(=O)NC(=O)[C@@H]2c3ccccc3CCN2C(=O)[C@@H]2CCCC[C@@H]2C(=O)O)cc1 | > 100 µM (inactive) |
| O=C(NCCc1ccccc1)c1ccccc1C(=O)NC[C@@H]1c2ccccc2CCN1C(=O)C1CCCCC1C(=O)O (stereo partly drawn) | > 100 µM (inactive) |
| Cc1ccc(S(=O)(=O)Nc2cc(C(C(=O)OC(C)C)C(=O)C(F)(F)F)c(O)c3ccccc23)cc1 (stereo not drawn) | 7.25 µM |
| Cc1ccccc1S(=O)(=O)Nc1cc(C(C(=O)OC(C)C)C(=O)C(F)(F)F)c(O)c2ccccc12 (stereo not drawn) | 3.2 µM |
| Cc1ccc(S(=O)(=O)Nc2cc(C(C(=O)OC(C)C)C(=O)C(F)(F)F)c(O)c3ccccc23)c(C)c1 (stereo not drawn) | 2.26 µM |
| O=C(O)Cc1ccccc1C(=O)N1CCc2ccccc2[C@H]1CN1C(=O)c2ccccc2C1=O | 28.3 µM |
| NC(=O)c1ccccc1C(=O)NC[C@@H]1c2ccccc2CCN1C(=O)[C@@H]1CCCC[C@@H]1C(=O)O | > 100 µM (inactive) |
| COC(=O)C(C(=O)OC)c1cc(NS(=O)(=O)c2c(C)cc(C)cc2C)c2ccccc2c1O | 34.2 µM |
| O=C(O)C1CCCCC1C(=O)N1CCc2ccccc2C1CN1Cc2ccccc2C1=O (stereo not drawn) | 31.9 µM |
| O=C(O)C1CCCCC1C(=O)N1CCc2ccccc2C1CN1C(=O)Cc2ccccc2C1=O (stereo not drawn) | > 100 µM (inactive) |

Other lines, results leading:

| AC50 | Compound |
| --- | --- |
| > 100 µM (inactive) | O=C(O)[C@H]1CCCC[C@H]1C(=O)N1CCC2=C(CCCC2)C1CN1C(=O)c2ccccc2C1=O (stereo partly drawn) |
| 0.673 µM | Cc1cc(C)c(S(=O)(=O)Nc2cc(C(C(=O)OC(C)C)C(=O)C(F)(F)F)c(O)c3ccccc23)c(C)c1 (stereo not drawn) |
| > 100 µM (inactive) | O=C(O)C1CCCCC1C(=O)N1CCc2ccccc2C1CN1C(=O)[C@H]2CCCC[C@H]2C1=O (stereo partly drawn) |
| 15.2 µM | CC(=O)Nc1cc(NS(=O)(=O)c2c(C)cc(C)cc2C)c2ccccc2c1O |

same assay, conditions: Keap1 Kelch/FITC-Nrf2 peptide fluorescence polarization; at 12 µM (top of the series)

| activity change, negative = inhibition | Compound |
| --- | --- |
| inactive | O=C1c2ccccc2C(=O)N1CC1c2ccccc2CCN1C(=O)Cc1ccccc1 (stereo not drawn) |

same assay, conditions: Keap1 Kelch/FITC-Nrf2 peptide fluorescence polarization; at 50 µM (top of the series)

| Compound | activity change, negative = inhibition |
| --- | --- |
| Cc1cc(C)c(S(=O)(=O)Nc2nc(N(C)C)nc3ccccc23)c(C)c1 | inactive |
| O=C(O)[C@@H]1CCCN1C(=O)N1CCc2ccccc2[C@H]1CN1C(=O)c2ccccc2C1=O | inactive |
| COc1ccccc1CCNC(=O)[C@@H]1c2ccccc2CCN1C(=O)C1CCCCC1C(=O)O (stereo partly drawn) | inactive |
| O=C(O)CCC(=O)N1CCc2ccccc2C1CN1C(=O)c2ccccc2C1=O (stereo not drawn) | inactive |
| O=C(NC[C@@H]1c2ccccc2CCN1C(=O)[C@@H]1CCCC[C@@H]1C(=O)O)c1ccccc1CO | inactive |
| COC(=O)CNc1nc(NS(=O)(=O)c2c(C)cc(C)cc2C)c2ccccc2n1 | inactive |
| COc1ccc(CCN=C2C=C(NS(=O)(=O)c3c(C)cc(C)cc3C)c3ccccc3C2=O)cc1 | inactive |
| C[C@H](NC(=O)C1CCCC[C@H]1C(=O)O)c1ccccc1 (mixture of isomers) | inactive |
| O=C(NCCCN1CCOCC1)c1ccccc1C(=O)NC[C@@H]1c2ccccc2CCN1C(=O)C1CCCCC1C(=O)O (stereo partly drawn) | inactive |
| O=C(NC[C@@H]1c2ccccc2CCN1C(=O)[C@@H]1CCCC[C@@H]1C(=O)O)c1ccc(CN2CCOCC2)cc1 | inactive |
| Cc1cc(C)c(S(=O)(=O)Nc2nc(NCCO)nc3ccccc23)c(C)c1 | inactive |
| Cc1ccc(S(=O)(=O)NC(=O)[C@@H]2c3ccccc3CCN2C(=O)[C@@H]2CCCC[C@@H]2C(=O)O)cc1 | inactive |
| O=C(Cc1ccccc1)NC[C@@H]1c2ccccc2CCN1C(=O)[C@@H]1CCCC[C@@H]1C(=O)O | inactive |
| O=C(O)C1CCCCC1C(=O)NCC1c2ccccc2CCN1C(=O)Cc1ccccc1 (stereo not drawn) | inactive |
| CCOC(=O)C(C(=O)OCC)c1cc(CNS(=O)(=O)c2ccc(C)cc2C)c2ccccc2n1 | inactive |
| CCOC(=O)C(C(=O)OCC)c1nc(NS(=O)(=O)c2c(C)cc(C)cc2C)c2ccccc2n1 | inactive |
| C[C@@H](NC(=O)C1CCCC[C@H]1C(=O)O)c1ccccc1 (mixture of isomers) | inactive |
| O=C(NCCO)c1ccccc1C(=O)NC[C@@H]1c2ccccc2CCN1C(=O)C1CCCCC1C(=O)O (stereo partly drawn) | inactive |
| Cc1ccc(S(=O)(=O)NNc2nc(NCC(N)=O)nc3ccccc23)cc1 | inactive |
| CCOC(=O)Cc1nc(NS(=O)(=O)c2c(C)cc(C)cc2C)c2ccccc2n1 | inactive |

| Compound | activity change, negative = inhibition |
| --- | --- |
| Cc1cc(C)c(S(=O)(=O)Nc2ncnc3ccccc23)c(C)c1 | inactive |
| COC(=O)[C@@H]1CCCC[C@@H]1C(=O)N1CCc2ccccc2[C@H]1CN1C(=O)c2ccccc2C1=O | inactive |
| O=C(O)C1CCCCC1C(=O)N1CCCCC1CN1C(=O)c2ccccc2C1=O (stereo not drawn) | inactive |
| O=S(=O)(Nc1nc(NCC2CCCCC2)nc2ccccc12)c1ccccc1 | inactive |
| O=C(O)C1CCCCC1C(=O)N1CCc2ccccc2[C@H]1C(=O)NC12CC3CC(CC(C3)C1)C2 (stereo partly drawn) | inactive |
| O=C(O)/C=C\C(=O)N1CCc2ccccc2C1CN1C(=O)c2ccccc2C1=O (stereo not drawn) | inactive |
| O=C1c2ccccc2C(=O)N1CC1=NCCc2ccccc21 | inactive |
| Cc1ccc(S(=O)(=O)NC[C@@H]2c3ccccc3CCN2C(=O)[C@@H]2CCCC[C@@H]2C(=O)O)c(C)c1 | inactive |
| O=C(O)[C@H]1CCCC[C@H]1C(=O)N1CCc2ccccc2[C@H]1CNS(=O)(=O)c1ccc([N+](=O)[O-])cc1 | inactive |
| O=C(NC[C@@H]1c2ccccc2CCN1C(=O)[C@@H]1CCCC[C@@H]1C(=O)O)OCC1c2ccccc2-c2ccccc21 | inactive |
| O=C1c2ccccc2C(=O)N1C[C@@H]1c2ccccc2CCN1C(=O)C1CCCCC1 | inactive |
| O=C(O)c1ccccc1C(=O)NC[C@@H]1c2ccccc2CCN1C(=O)[C@@H]1CCCC[C@@H]1C(=O)O | inactive |
| O=C(O)CC(=O)N1CCc2ccccc2C1CN1C(=O)c2ccccc2C1=O (stereo not drawn) | inactive |
| O=C(O)C1CCCCC1C(=O)Nc1ccccc1CN1C(=O)c2ccccc2C1=O (stereo not drawn) | inactive |
| O=C(O)[C@H]1CCCC[C@H]1C(=O)N1CCc2ccccc2C1CCN1C(=O)c2ccccc2C1=O (stereo partly drawn) | inactive |
| O=C(NC[C@@H]1c2ccccc2CCN1C(=O)[C@@H]1CCCC[C@@H]1C(=O)O)c1ccccc1 | inactive |
| O=C(O)[C@H]1CCCC[C@H]1C(=O)NC(CN1C(=O)c2ccccc2C1=O)c1ccccc1 (stereo partly drawn) | inactive |
| C=CC(=O)NC[C@@H]1c2ccccc2CCN1C(=O)[C@@H]1CCCC[C@@H]1C(=O)O | inactive |
| Cc1ccc(S(=O)(=O)NNc2nc(N3CC(O)CC3C(=O)O)nc3ccccc23)cc1 (stereo not drawn) | inactive |

The next lines start with the values.

| activity change, negative = inhibition | Compound |
| --- | --- |
| inactive | O=C(O)[C@H]1CCCC[C@H]1C(=O)N1CCC2=C(CCCC2)C1CN1C(=O)c2ccccc2C1=O (stereo partly drawn) |
| inactive | O=C(O)[C@H]1CCCC[C@H]1C(=O)N1CCc2ccccc2[C@H]1CNc1nc(Cl)nc2ccccc12 |
| inactive | CCOC(=O)C(C(=O)OCC)c1cc(CN2C(=O)c3ccccc3C2=O)c2ccccc2n1 |
| inactive | COC(=O)[C@H]1CCCC[C@H]1C(=O)N1CCc2ccccc2[C@H]1CN1C(=O)c2ccccc2C1=O |
| inactive | Cc1cc(C)c(S(=O)(=O)Nc2cc(C(C(=O)OCc3ccccc3)C(=O)OCc3ccccc3)c(O)c3ccccc23)c(C)c1 |
| inactive | NC(=O)[C@H]1CCCC[C@H]1C(=O)N1CCc2ccccc2[C@H]1CN1C(=O)c2ccccc2C1=O |
| inactive | CC(C)CNc1nc(NS(=O)(=O)c2ccccc2)c2ccccc2n1 |
| inactive | O=C(NC[C@@H]1c2ccccc2CCN1C(=O)[C@@H]1CCCC[C@@H]1C(=O)O)c1ccc(CCl)cc1 |
| inactive | Cc1ccc(S(=O)(=O)NC2=CC(=N[C@@H](C)C(=O)OC(C)(C)C)C(=O)c3ccccc32)c(C)c1 |
| inactive | O=C(O)[C@H]1CCCC[C@H]1C(=O)N1CCc2ccccc2[C@H]1CNS(=O)(=O)c1ccccc1 |
| inactive | O=C(O)c1ccccc1C(=O)N1CCc2ccccc2C1CN1C(=O)c2ccccc2C1=O (stereo not drawn) |
| inactive | O=C(O)CCCC(=O)N1CCc2ccccc2C1CN1C(=O)c2ccccc2C1=O (stereo not drawn) |
| inactive | O=C(O)C1CCCCC1C(=O)N1CCc2ccccc2[C@H]1C(=O)NCCc1ccccc1 (stereo partly drawn) |
| inactive | O=C1c2ccccc2C(=O)N1C[C@H]1NCCc2ccccc21 |
| inactive | O=C(Oc1cc(CN2C(=O)c3ccccc3C2=O)c2ccccc2[n+]1[O-])c1cccc(Cl)c1 |
| inactive | O=C(O)C1CCCCC1C(=O)N1CCc2ccccc2C1c1ccccc1 (stereo not drawn) |
| inactive | COC(=O)C1CCCCC1C(=O)N1CCc2ccccc2C1CN1C(=O)c2ccccc2C1=O (stereo not drawn) |
| inactive | O=C(O)[C@H]1CCCC[C@H]1C(=O)N1CCc2ccccc2C1 (racemic) |
| inactive | O=C1c2ccccc2C(=O)N1C[C@@H]1c2ccccc2CCN1C(=O)OCc1ccccc1 |
| inactive | Cc1cc(C)c(S(=O)(=O)Nc2nc(C(C(=O)OC(C)C)C(=O)C(F)(F)F)nc3ccccc23)c(C)c1 (stereo not drawn) |
| inactive | COC(=O)[C@@H]1CCCC[C@@H]1C(=O)N1CCc2ccccc2[C@@H]1CN1C(=O)c2ccccc2C1=O |
| inactive | Cc1ccc(S(=O)(=O)NNc2nc(C(C(=O)OC(C)C)C(=O)C(F)(F)F)nc3ccccc23)cc1 (stereo not drawn) |
